Data: publication PMC5665883, “Antithrombotic properties of JJ1, a potent and novel thrombin inhibitor” (Scientific Reports, 2017)
Marks after values point to notes of the source that are not given here.

What was measured:
Factor Xa = molecular target: T1, Factor Xa (Homo sapiens, UniProt P00742); test: Chromogenic substrate assay, Ki (Dixon); assay type: biochemical; conditions: for Ki: Factor Xa
T1 construct: thrombin versus trypsin, factor Xa, elastase, plasmin, protein Ca, streptokinase, tPA, and urokinase; purchased Haematologic Technologies (Essex Junction, VT)
T1 sequence (P00742 235-488 limits assumed): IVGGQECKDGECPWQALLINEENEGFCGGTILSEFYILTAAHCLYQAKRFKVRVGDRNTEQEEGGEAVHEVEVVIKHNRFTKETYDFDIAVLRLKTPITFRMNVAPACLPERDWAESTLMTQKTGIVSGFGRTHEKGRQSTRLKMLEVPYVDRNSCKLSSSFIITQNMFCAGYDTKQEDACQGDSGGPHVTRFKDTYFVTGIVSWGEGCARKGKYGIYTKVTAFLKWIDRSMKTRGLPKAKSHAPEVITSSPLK
T1 sequence (P00742 41-179 limits assumed): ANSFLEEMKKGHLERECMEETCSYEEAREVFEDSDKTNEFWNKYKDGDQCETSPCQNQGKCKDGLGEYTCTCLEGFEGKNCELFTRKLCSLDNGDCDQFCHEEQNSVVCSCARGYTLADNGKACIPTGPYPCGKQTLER

[1] = In vivo tail bleeding time; design: species or system C57BL/6 mice; conditions: mice, i.v. injection
Experimental: Tail bleeding times were measured by using the method of Dejana et al.[63],[64]. Briefly, C57BL/6 mice were fasted overnight prior to the experiments. One hour after the i.v. administration of JJ1, the tails of the mice were transected at 2 mm from their tips. The bleeding time was defined as the time elapsed until the bleeding stopped. Bleeding times exceeding 15 min were recorded as lasting for 15 min.

Streptokinase = Streptokinase (Homo sapiens, UniProt P00747); test: Chromogenic substrate assay, Ki (Dixon); assay type: biochemical; conditions: for Ki: Streptokinase
Sequence of Streptokinase (P00747 581-810 limits assumed): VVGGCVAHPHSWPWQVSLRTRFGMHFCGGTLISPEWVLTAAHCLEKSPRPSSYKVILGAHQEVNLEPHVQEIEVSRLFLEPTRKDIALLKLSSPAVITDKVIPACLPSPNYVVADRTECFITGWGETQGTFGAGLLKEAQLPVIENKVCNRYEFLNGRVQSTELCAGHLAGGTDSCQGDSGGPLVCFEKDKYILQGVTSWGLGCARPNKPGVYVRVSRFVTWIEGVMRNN

Trypsin = test: Chromogenic substrate assay, Ki (Dixon); assay type: biochemical, human; conditions: for Ki: Trypsin, mean ± SD (n = 5)
Experimental: (§1) Chromogenic substrate assays were performed using a Labsystems IEMS (Cergy Pontoise, France) microtiter plate reader. K i values were calculated according to the method of Dixon[65]. In each assay, the compound was tested at a minimum of seven concentrations, in duplicate, to obtain an inhibition curve. The following general procedures were adopted for each assay. In a 96-well microtiter plate, 25 μL of inhibitor solution or buffer was added to 50 μL of substrate. The enzyme solution (25 μL) was added just before the plate was placed in the microtiter plate reader for 1 h at 37 °C. The hydrolysis of the substrate yields p-nitroaniline, which was continuously monitored spectrophotometrically at 405 nm. The maximal initial reaction rates were calculated and expressed as millioptical density per minute.

[2] = FeCl3-induced arterial thrombosis model; assay type: in vivo, C57BL/6 mice; conditions: mice, 150 μg/mouse
Experimental: The FeCl3-induced thrombosis mouse model was established as previously described. Male C57BL/6 mice were fasted overnight and were administered JJ1 in DMSO by intravenous injection. Then, mice were anesthetized using 3% isoflurane (Forane®, Choongwae Pharma. Corp., Seoul, Korea) and injected intravenously with 0.1 mL 0.1% rhodamine 6 G (Sigma). A testicular artery (200 μm in diameter) was carefully exposed and a cotton thread (200 μm in diameter) saturated with 0.25 mol/L FeCl3 was applied to the adventitial surface. After 5 min, the cotton thread was removed, and the wound was flushed with saline solution. Thrombus formation was monitored at 35 °C by 3-dimensional imaging as previously described. The size and time of thrombus formation were monitored, and the findings were scored as follows: no thrombus, 0; small thrombus (50 μm × 75 μm), 1; medium-sized thrombus (100 μm × 150 μm), 2; large thrombus (200 μm × 300 μm), 3. The time from FeCl3-mediated endothelial injury to occlusion of the testicular artery by a large thrombus was measured.

Urokinase = Urokinase (Homo sapiens, UniProt P00749); test: Chromogenic substrate assay, Ki (Dixon); assay type: biochemical; conditions: for Ki: Urokinase
Protein Ca = molecular target: T2, Protein Ca (Homo sapiens, UniProt P04070); test: Chromogenic substrate assay, Ki (Dixon); assay type: biochemical; conditions: for Ki: Protein Ca
T2 construct: thrombin versus trypsin, factor Xa, elastase, plasmin, protein Ca, streptokinase, tPA, and urokinase
T2 sequence (P04070 212-450 limits assumed): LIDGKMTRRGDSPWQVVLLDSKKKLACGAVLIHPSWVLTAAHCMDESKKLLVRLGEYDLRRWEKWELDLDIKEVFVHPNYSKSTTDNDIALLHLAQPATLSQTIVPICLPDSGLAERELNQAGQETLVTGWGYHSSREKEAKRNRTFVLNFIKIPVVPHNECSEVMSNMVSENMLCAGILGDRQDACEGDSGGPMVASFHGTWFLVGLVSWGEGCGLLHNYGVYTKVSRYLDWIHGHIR
T2 sequence (P04070 43-197 limits assumed): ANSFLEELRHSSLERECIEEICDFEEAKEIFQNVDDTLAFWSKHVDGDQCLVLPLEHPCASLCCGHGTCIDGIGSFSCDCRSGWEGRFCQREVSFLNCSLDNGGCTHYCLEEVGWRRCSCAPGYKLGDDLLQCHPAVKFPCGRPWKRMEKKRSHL

human plasma [3] = test: In vitro aPTT clotting time; assay type: biochemical; conditions: in vitro, 5.0 μM
Experimental: (§2) The aPTT and PT were determined using a Thrombotimer (Behnk Elektronik, Norderstedt, Germany) in accordance with the manufacturer’s instructions and as previously described. Briefly, citrated normal human plasma (90 μL) was mixed with 10 μL JJ1 and incubated for 1 min at 37 °C. Subsequently, the aPTT assay reagent (100 μL) was added, the plasma sample was incubated for an additional 1 min at 37 °C, 20 mM CaCl2 (100 μL) was added, and the clotting times were recorded. For the PT assays, citrated normal human plasma (90 μL) was mixed with 10 μL JJ1 stock solution and was incubated for 1 min at 37 °C. The PT assay reagent (200 μL), which had been pre-incubated for 10 min at 37 °C, was subsequently added and the clotting time was recorded. The PT results were expressed in seconds and as International Normalized Ratios (INR): INR = (PT sample/PT control)^ISI, where ISI = international sensitivity index. The aPTT results were also expressed in seconds. All experimental protocols (KNUH 2012-01-010) were approved by the Institutional Review Board of Kyungpook National University Hospitals (Daegu, Republic of Korea).

human plasma [4] = test: In vitro PT clotting time; assay type: biochemical; conditions: in vitro, 5.0 μM
Experimental: as §2

tPA = tPA (Homo sapiens, UniProt P00750); test: Chromogenic substrate assay, Ki (Dixon); assay type: biochemical; conditions: for Ki: tPA
Sequence of tPA (P00750 36-562): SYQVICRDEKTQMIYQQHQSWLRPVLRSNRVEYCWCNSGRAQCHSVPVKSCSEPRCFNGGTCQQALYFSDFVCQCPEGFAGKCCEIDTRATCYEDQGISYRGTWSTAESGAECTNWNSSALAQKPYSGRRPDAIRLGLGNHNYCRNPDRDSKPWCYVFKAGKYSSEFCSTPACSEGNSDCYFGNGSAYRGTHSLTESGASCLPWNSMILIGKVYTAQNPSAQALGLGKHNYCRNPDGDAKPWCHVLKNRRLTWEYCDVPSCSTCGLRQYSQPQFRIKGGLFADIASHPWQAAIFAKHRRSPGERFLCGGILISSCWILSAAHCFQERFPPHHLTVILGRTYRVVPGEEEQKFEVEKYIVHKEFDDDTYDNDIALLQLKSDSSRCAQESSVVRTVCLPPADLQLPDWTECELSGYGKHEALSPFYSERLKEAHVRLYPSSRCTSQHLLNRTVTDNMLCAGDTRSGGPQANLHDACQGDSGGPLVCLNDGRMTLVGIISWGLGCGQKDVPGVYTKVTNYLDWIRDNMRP

Plasmin = molecular target: T3, Plasmin (Homo sapiens, UniProt P00747); test: Chromogenic substrate assay, Ki (Dixon); assay type: biochemical; conditions: for Ki: Plasmin
T3 construct: thrombin versus trypsin, factor Xa, elastase, plasmin, protein Ca, streptokinase, tPA, and urokinase
T3 sequence (P00747 581-810 limits assumed): as the sequence (P00747 581-810 limits assumed) above
T3 sequence (P00747 97-580 limits assumed): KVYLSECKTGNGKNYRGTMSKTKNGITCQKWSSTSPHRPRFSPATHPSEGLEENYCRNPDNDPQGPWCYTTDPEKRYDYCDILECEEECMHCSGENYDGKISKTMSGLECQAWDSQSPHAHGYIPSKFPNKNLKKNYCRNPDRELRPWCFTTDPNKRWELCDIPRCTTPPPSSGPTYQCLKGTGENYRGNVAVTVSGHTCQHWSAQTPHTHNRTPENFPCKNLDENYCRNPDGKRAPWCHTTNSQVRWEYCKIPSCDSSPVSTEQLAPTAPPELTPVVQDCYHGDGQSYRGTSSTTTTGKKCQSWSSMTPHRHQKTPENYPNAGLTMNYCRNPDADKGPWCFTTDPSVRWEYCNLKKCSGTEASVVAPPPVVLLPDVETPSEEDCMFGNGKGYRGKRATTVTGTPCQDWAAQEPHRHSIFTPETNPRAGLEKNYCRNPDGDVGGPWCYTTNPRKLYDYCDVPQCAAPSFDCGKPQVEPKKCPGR

[5] = tested on: neuropeptide Y receptor type 5; design: method as in PMID 21948594; conditions: not reported in publications; cited from earlier work
[6] = design: method as in PMID 21948594; conditions: not reported in publications; cited from earlier work
human α-thrombin = molecular target: T4, human α-thrombin (Homo sapiens, UniProt P00734); test: Chromogenic substrate assay, Ki (Dixon); assay type: biochemical
T4 construct: purchased Haematologic Technologies (Essex Junction, VT)

thrombin [7] = molecular target: T5, thrombin (Homo sapiens, UniProt P00734); test: Thrombin activity assay (amidolytic activity, S-2238); assay type: biochemical; conditions: α-Thrombin, chromogenic substrate; read-out: IC50, inhibition of amidolytic activity of thrombin (converted)
T5 construct: thrombin solution (150 μL, 10 U/mL) was added; purchased Haematologic Technologies (Essex Junction, VT)
Experimental: Following a 2-min incubation at 37 °C, thrombin solution (150 μL, 10 U/mL) was added, followed by incubation at 37 °C for 1 min. A solution of the thrombin substrate, S-2238, (150 μL, 1.5 mM) solution was subsequently added and the absorbance at 405 nm was monitored for 120 s using a spectrophotometer (TECAN, Männedorf, Switzerland).

human plasma [8] = test: In vitro aPTT clotting time; assay type: biochemical; conditions: at the maximum antithrombotic dose
human plasma [9] = test: In vitro PT clotting time; assay type: biochemical; conditions: at the maximum antithrombotic dose
Elastase = molecular target: T6, Elastase (Homo sapiens, UniProt P08246); test: Chromogenic substrate assay, Ki (Dixon); assay type: biochemical; conditions: K i Elastase/K i α-thrombin
T6 sequence (P08246 30-247): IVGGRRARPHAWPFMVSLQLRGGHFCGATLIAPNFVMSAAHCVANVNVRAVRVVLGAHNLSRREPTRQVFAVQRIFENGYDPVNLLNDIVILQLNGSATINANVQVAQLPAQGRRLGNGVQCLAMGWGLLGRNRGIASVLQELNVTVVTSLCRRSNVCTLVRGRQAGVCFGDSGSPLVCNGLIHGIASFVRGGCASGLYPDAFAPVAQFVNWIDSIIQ
Experimental: as §1

thrombin [10] = molecular target: T5, thrombin; test: Enzyme-based assay of purchased virtual screening molecules, single dose; assay type: biochemical; conditions: single concentration of 50 μM
Description: Prior to the high-throughput virtual screening, we selected the best crystal structure for docking with DOCK 3.6[17] using the selected inhibitors and their physicochemically matched but topologically different decoys. […] Because the earlier enrichment of true positives is more important for high throughput SBVS, we used the value of LogAUC as a metric, selecting 2CF9-H[18] as the best structure. […] Besides, the enrichment at 1% (EF1) was 37.1. The values of LogAUC and EF1 were approximately two-fold higher than the averages (26.1 for LogAUC and 17.1 for EF1) (Figs 1 and S1). Some structures had higher AUC values than that of 2CF9-H, but the value of LogAUC was the highest for 2CF9-H (Fig. S1). The optimization necessitated the calculations of more than 2 million protein and ligand pairs. The high speed of DOCK 3.6 and the in-house Linux cluster system consisting of 128 cores efficiently managed the calculations in three days. Of the candidate molecules having the lowest scores in the high-throughput SBVS, we chose the molecules with desirable geometries and physicochemical properties by a simple manual and visual inspection. […] It is known that the scoring function of virtual screening itself is insufficient to capture such an abnormality. Table S1 and Fig. S2 list the top 40 molecules, which were selected through high-throughput SBVS; we purchased these molecules to measure enzymatic inhibitory activity.

In the case of `CC1CNc2c(cccc2S(=O)(=O)N[C@@H](CCCNC(=N)N)C(=O)N2CC[C@@H](C)C[C@@H]2C(=O)O)C1` (stereo partly drawn) [Argatroban], the Ki (Factor Xa) is reported as over 250 µM, the Tail bleeding time ([1]; 5.08 μg/mouse) is reported as 62.2 ± 0.8 s and the Ki (Streptokinase) is reported as over 250 µM. For the same compound, the Ki (Trypsin) was 4.2 ± 0.5 µM, the Thrombus size score ([2]; 60 min after FeCl3-treatment, score 0-3) was 1.15 ± 0.12 and the “Time to large thrombus formation” value ([2]; FeCl3-induced thrombosis) was 61.2 ± 5.1 min. It also gave a Ki (Urokinase) of over 250 µM, a Ki (Protein Ca) of over 250 µM and an aPTT (human plasma [3]) of 61.4 ± 0.8 s. For the same compound, the PT (human plasma [4]) was 27.4 ± 0.7 s, the “PT (INR)” value (human plasma [4]) was 7.40* INR and the Ki (tPA) was over 250 µM. The Ki (Plasmin) was over 250 µM.
For `c1ccc(Nc2nc(NC3CCCCC3)nc3ccccc23)cc1` [CHEMBL17914], the “Activity linked in ChEMBL” value [5] is given as “linked with the inhibition of neuropeptide Y receptor type 5”.
For `c1ccc2c(NC3CCCC3)nc(Nc3ccc4c(c3)OCO4)nc2c1` [CHEMBL578118], the “Activity linked in ChEMBL” value [6] is listed as “antimalarial effects”.
In the case of `Oc1ccccc1Nc1nc(NC2CCCC2)c2ccccc2n1` [CHEMBL581623], the “Activity linked in ChEMBL” value [6] is given as “antimalarial effects”.
For `CN[C@H](Cc1ccccc1)C(=O)N1CCC[C@H]1C(=O)N[C@H](C=O)CCCN=C(N)N` [Efegatran], the Selectivity ratio (human α-thrombin; K i enzyme/K i α-thrombin) was 1, the Ki (human α-thrombin; mean ± SD (n = 5)) was 0.017 ± 0.0003 µM and the Selectivity ratio (Factor Xa) was 5411. For the same compound, the Ki (Factor Xa) was 92 ± 9 µM, the Tail bleeding time ([1]; 4.17 μg/mouse) was 47.4 ± 1.1 s and the Selectivity ratio (Streptokinase) was 82. It also gave a Ki (Streptokinase) of 1.4 ± 0.11 µM, a Selectivity ratio (Trypsin; K i Trypsin/K i α-thrombin) of 0.65 and a Ki (Trypsin) of 0.011 ± 0.0041 µM. The IC50 (thrombin [7]) was 0.025 µM, the “Prolongation of aPTT” value (human plasma [8]) was 1.86 fold and the Selectivity ratio (Urokinase) was 147. It also gave a Ki (Urokinase) of 2.5 ± 0.3 µM, a Selectivity ratio (Protein Ca) of 70 and a Ki (Protein Ca) of 1.2 ± 0.15 µM. The “Prolongation of PT” value (human plasma [9]) was 1.61 fold, the aPTT (human plasma [3]) was 44.2 ± 0.6 s and the Selectivity ratio (Elastase) was >14,000. The PT (human plasma [4]) was 19.2 ± 0.4 s, the “PT (INR)” value (human plasma [4]) was 3.15* INR and the Selectivity ratio (tPA) was 88. The Ki (tPA) was 1.5 ± 0.3 µM, the Selectivity ratio (Plasmin) was 28 and the Ki (Plasmin) was 0.48 ± 0.04 µM.
In the case of `CCN(c1cccc(C)c1)S(=O)(=O)c1cc([N+](=O)[O-])ccc1C` [ZINC04991109], the “Degree of inhibition in the enzyme-based assay” value (thrombin [10]) is reported as “inhibitory effects”.
For `COc1ccc(C(=O)NCc2ccco2)cc1S(=O)(=O)N1CCCCC1` [ZINC09063750], the “Degree of inhibition in the enzyme-based assay” value (thrombin [10]) was “inhibitory effects”.
